ChEMBL document CHEMBL3785036 (J Pharm Sci, 1974)

Key:
Format in all cases: ADME, organism-based
[1] = Drug metabolism in human slow inactivators assessed as excretion of 1,2-diacetylhydrazine in urine at 1 g, iv by colorimetry; details: in vivo
[2] = Drug excretion in human subject slow inactivator assessed as sum of isoniazid plus hydrazones, acetylisoniazid, isonicotinic acid and isonicotinuric acid level in urine at 681 mg, iv infused at constant rate 5.4 min measured 150 mins after start of drug injection by colorimetry; details: in vivo, 2.5 h
[3] = Drug excretion in human subject slow inactivator assessed as total isonicotinoyl compound level in urine at 681 mg, iv infused at constant rate 5.4 min measured 430.2 mins after start of drug injection by colorimetry; details: in vivo, 7.17 h
[4] = Drug excretion in human subject slow inactivator assessed as total isonicotinoyl compound level in urine at 681 mg, iv infused at constant rate 5.4 min measured 677 mins after start of drug injection by colorimetry; details: in vivo
[5] = Drug excretion in human subject slow inactivator assessed as sum of isoniazid plus hydrazones, acetylisoniazid, isonicotinic acid and isonicotinuric acid level in urine at 681 mg, iv infused at constant rate 5.4 min measured 305 mins after start of drug injection by colorimetry; details: in vivo
[6] = Drug excretion in human subject slow inactivator assessed as sum of isoniazid plus hydrazones, acetylisoniazid, isonicotinic acid and isonicotinuric acid level in urine at 681 mg, iv infused at constant rate 5.4 min measured 339.3 mins after start of drug injection by colorimetry; details: in vivo, 5.655 h
[7] = Drug excretion in human subject rapid inactivator assessed as sum of isoniazid plus hydrazones, acetylisoniazid, isonicotinic acid and isonicotinuric acid level in urine at 670 mg, iv infused at constant rate 5.2min measured 335 mins after start of drug injection by colorimetry; details: in vivo
[8] = Drug excretion in human subject rapid inactivator assessed as sum of isoniazid plus hydrazones, acetylisoniazid, isonicotinic acid and isonicotinuric acid level in urine at 670 mg, iv infused at constant rate 5.2min measured 195 mins after start of drug injection by colorimetry; details: in vivo, 3.25 h
[9] = Drug excretion in human subject rapid inactivator assessed as total isonicotinoyl compound level in urine at 670 mg, iv infused at constant rate 5.2min measured 335 mins after start of drug injection by colorimetry; details: in vivo
[10] = Drug excretion in human subject slow inactivator assessed as sum of isoniazid plus hydrazones, acetylisoniazid, isonicotinic acid and isonicotinuric acid level in urine at 681 mg, iv infused at constant rate 5.4 min measured 243.5 mins after start of drug injection by colorimetry; details: in vivo
[11] = Drug excretion in human subject slow inactivator assessed as total isonicotinoyl compound level in urine at 681 mg, iv infused at constant rate 5.4 min measured 339.3 mins after start of drug injection by colorimetry; details: in vivo, 5.655 h
[12] = Drug excretion in human subject rapid inactivator assessed as sum of isoniazid plus hydrazones, acetylisoniazid, isonicotinic acid and isonicotinuric acid level in urine at 670 mg, iv infused at constant rate 5.2min measured 516 mins after start of drug injection by colorimetry; details: in vivo
[13] = Drug excretion in human subject slow inactivator assessed as sum of isoniazid plus hydrazones, acetylisoniazid, isonicotinic acid and isonicotinuric acid level in urine at 681 mg, iv infused at constant rate 5.4 min measured 466 mins after start of drug injection by colorimetry; details: in vivo
[14] = Drug excretion in human subject slow inactivator assessed as sum of isoniazid plus hydrazones, acetylisoniazid, isonicotinic acid and isonicotinuric acid level in urine at 681 mg, iv infused at constant rate 5.4 min measured 116 mins after start of drug injection by colorimetry; details: in vivo
[15] = Drug metabolism in human rapid inactivators assessed as excretion of 1,2-diacetylhydrazine in urine at 1 g, iv by colorimetry; details: in vivo
[16] = Drug excretion in human subject rapid inactivator assessed as total isonicotinoyl compound level in urine at 670 mg, iv infused at constant rate 5.2min measured 94 mins after start of drug injection by colorimetry; details: in vivo
[17] = Drug excretion in human subject rapid inactivator assessed as sum of isoniazid plus hydrazones, acetylisoniazid, isonicotinic acid and isonicotinuric acid level in urine at 670 mg, iv infused at constant rate 5.2min measured 158 mins after start of drug injection by colorimetry; details: in vivo
[18] = Drug excretion in human subject rapid inactivator assessed as sum of isoniazid plus hydrazones, acetylisoniazid, isonicotinic acid and isonicotinuric acid level in urine at 670 mg, iv infused at constant rate 5.2min measured 458 mins after start of drug injection by colorimetry; details: in vivo
[19] = Drug excretion in human subject slow inactivator assessed as total isonicotinoyl compound level in urine at 681 mg, iv infused at constant rate 5.4 min measured 710 mins after start of drug injection by colorimetry; details: in vivo
[20] = Drug excretion in human subject slow inactivator assessed as total isonicotinoyl compound level in urine at 681 mg, iv infused at constant rate 5.4 min measured 305 mins after start of drug injection by colorimetry; details: in vivo
[21] = Drug excretion in human slow inactivators urine at 1 g, iv by colorimetry; details: in vivo
[22] = Drug excretion in human subject slow inactivator assessed as sum of isoniazid plus hydrazones, acetylisoniazid, isonicotinic acid and isonicotinuric acid level in urine at 681 mg, iv infused at constant rate 5.4 min measured 181 mins after start of drug injection by colorimetry; details: in vivo
[23] = Drug excretion in human subject slow inactivator assessed as sum of isoniazid plus hydrazones, acetylisoniazid, isonicotinic acid and isonicotinuric acid level in urine at 681 mg, iv infused at constant rate 5.4 min measured 524 mins after start of drug injection by colorimetry; details: in vivo
[24] = Drug excretion in human rapid inactivators urine assessed as isoniazid plus hydrazones level at 1 g, iv by colorimetry; details: in vivo
[25] = Drug metabolism in human rapid inactivators assessed as excretion of isonicotinuric acid in urine at 1 g, iv by colorimetry; details: in vivo
[26] = Drug excretion in human subject slow inactivator assessed as total isonicotinoyl compound level in urine at 681 mg, iv infused at constant rate 5.4 min measured 396 mins after start of drug injection by colorimetry; details: in vivo, 6.6 h
[27] = Drug excretion in human subject slow inactivator assessed as total isonicotinoyl compound level in urine at 681 mg, iv infused at constant rate 5.4 min measured 586 mins after start of drug injection by colorimetry; details: in vivo
[28] = Drug excretion in human subject slow inactivator assessed as total isonicotinoyl compound level in urine at 681 mg, iv infused at constant rate 5.4 min measured 181 mins after start of drug injection by colorimetry; details: in vivo
[29] = Drug excretion in human subject rapid inactivator assessed as total isonicotinoyl compound level in urine at 670 mg, iv infused at constant rate 5.2min measured 227 mins after start of drug injection by colorimetry; details: in vivo
[30] = Drug excretion in human subject rapid inactivator assessed as sum of isoniazid plus hydrazones, acetylisoniazid, isonicotinic acid and isonicotinuric acid level in urine at 670 mg, iv infused at constant rate 5.2min measured 426 mins after start of drug injection by colorimetry; details: in vivo
[31] = Drug excretion in human subject slow inactivator assessed as sum of isoniazid plus hydrazones, acetylisoniazid, isonicotinic acid and isonicotinuric acid level in urine at 681 mg, iv infused at constant rate 5.4 min measured 396 mins after start of drug injection by colorimetry; details: in vivo, 6.6 h

Drug metabolism [1]: 32.3 %molar
Drug excretion [2]: 38.71 mg
Drug excretion [3]: 20 mg
Drug excretion [4]: 10.6 mg
Drug excretion [5]: 27.92 mg
Drug excretion [6]: 33.69 mg
Drug excretion [7]: 29 mg
Drug excretion [8]: 57.7 mg
Drug excretion [9]: 29.6 mg
Drug excretion [10]: 37.21 mg
Drug excretion [11]: 32 mg
Drug excretion [12]: 16.8 mg
Drug excretion [13]: 20.23 mg
Drug excretion [14]: 32.27 mg
Drug metabolism [15]: 48.4 %molar
Drug excretion [16]: 51.8 mg
Drug excretion [17]: 49.9 mg
Drug excretion [18]: 17.3 mg
Drug excretion [19]: 9.25 mg
Drug excretion [20]: 27.3 mg
Drug excretion [21]: 12.7 %molar
Drug excretion [22]: 34.76 mg
Drug excretion [23]: 11.32 mg
Drug excretion [24]: 99.6%
Drug metabolism [25]: 21.3 %molar
Drug excretion [26]: 16.5 mg
Drug excretion [27]: 12.7 mg
Drug excretion [28]: 33.6 mg
Drug excretion [29]: 38.8 mg
Drug excretion [30]: 16.5 mg
Drug excretion [31]: 17.18 mg
Compound: NNC(=O)c1ccncc1 [ISONIAZID]
